This is an account of results in US6197761A, “17β-2-oxo-tetrahydrofuranyl)-carbothioic acid ester, -carboxylic acid ester and -carboxylic acid amide androstane derivatives” (Glaxo Wellcome Inc., priority 1995, dated 2001).

The subject of series [1] is rat ear oedema. Briefly: Anti-inflammatory activity: inhibition of rat ear oedema (croton oil). It is filed as in vivo. As to conditions: dose 100 μg, topical to ear with 5% croton oil in acetone, male rats, 6 hours. Here is the method:
(i) Anti-inflammatory Activity--Inhibition of rat ear oedema
The test compounds are dissolved in acetone and 40 ul containing 5% croton oil is applied to the inner surface of each of the ears of 60-80 g male rats. Animals are killed 6 hours later and the ears are removed. Standard size (0.5 cm diameter) discs are punched out and the discs weighed. Mean weight of the ear discs is calculated and from this percentage inhibition of ear inflammation in relation to croton oil alone treated ears are calculated.

In series [2] the test system is Adrenocorticotrophic hormone (ACTH). Briefly: Systemic effects: ACTH suppression in adrenalectomised rats. It is filed as in vivo, rat. As to conditions: single intra-tracheal, adrenalectomised male CD rats, plasma ACTH at 4 h. How it is done: (ii) Systemic effects--ACTH suppression in adrenalectomised rats
Male CD rats (90-120 g) were adrenalectomised under Isoflurane anaesthesia and drinking water was supplemented with 0.9% saline. Four days later the animals receive a single intra-tracheal dose (under Isoflurane anaesthesia) of compound suspended in saline (containing 0.2% Tween-80, 0.2 ml) at 10 am. After 4 h animals are sacrificed by administration of Euthetal and blood samples are taken by intra-cardiac puncture and collected into heparinised tubes. The samples are centrifuged (20 minutes at 1000 RPM at 4 deg C.), the plasma is collected and assayed by Radioimmunoassay (RIA) for Adrenocorticotrophic hormone (ACTH) using a DPC double antibody RIA kit. Intact and vehicle control groups were included in each experiment in order to account for diurnal variation in ACTH and effects of vehicle. Results are calculated with respect to the RIA standard curve and expressed as ACTH pg/ml plasma, allowing percentage reduction in ACTH to be calculated.

In the case of `CCC(=O)O[C@]1(C(=O)S[C@H]2CCOC2=O)[C@H](C)C[C@H]2[C@@H]3C[C@H](F)C4=CC(=O)C=C[C@]4(C)[C@@]3(F)[C@@H](O)C[C@@]21C` [Example 2, 6α,9α-Difluoro-11β-hydroxy-16α-methyl-3-oxo-17α-propionyloxy-androsta-1,4-diene-17β-carbothioic acid S-(2-oxo-tetrahydro-furan-3S-yl)-ester], the “% Inhibition (ear inflammation)” value in series [1] is recorded as 42%. Moreover, the “% Reduction in ACTH” value in series [2] (dose 500 μg) was found to be 0%.
On to `CC1(C)O[C@@H]2C[C@H]3[C@@H]4C[C@H](F)C5=CC(=O)C=C[C@]5(C)[C@@]4(F)[C@@H](O)C[C@]3(C)[C@]2(C(=O)CO)O1` [Fluocinolone acetonide], for which the “% Reduction in ACTH” value in series [2] (dose 1 μg) stood at 49%; in series [2] (dose 5 μg), 84%.
